We go through 1 compound from paper PMC6290777, “Inhalation of the prodrug PI3K inhibitor CL27c improves lung function in asthma and fibrosis” (Nature Communications, 2018).

What all share (assay type): in vivo, BALB/c mice
For experiment [1], the system named is glucocorticoid-resistant neutrophilic asthma. Kind of experiment: Glucocorticoid-resistant asthma model. Conditions: CL27c 2 mg/ml aerosol; dexamethasone 5 mg/kg i.p. The protocol:
(§1) BALF was performed to obtain leukocytes from alveolar space. The trachea was exposed and a 1.7-mm-outside-diameter polyethylene catheter was inserted. BAL was performed by washing the lungs three-times with three different 500 µl aliquots of PBS. BALF samples were centrifuged at 600 × g for 10 min at 4 °C on a histology glass slide and stained with Diff Quick (MICROPTIC, #DQ-ST). The number of leukocytes and differential counts of different population were obtained evaluating the percentage leukocyte populations over the total cell number.
(§2) Mice were anesthetized with a subcutaneous injection of ketamine and xylazine (130 mg/Kg ketamine and 8.5 mg/Kg xylazine) to maintain spontaneous breathing under anesthesia. Mice were tracheostomized, placed in a body plethysmograph and connected to a computer-controlled ventilator (Forced Pulmonary Maneuver System®, Buxco Research Systems©, Wilmington, North Carolina USA). First, an average breathing frequency of 160 breaths/min was imposed to the anesthetized animal by a pressure-controlled ventilation until a regular breathing pattern and complete expiration at each breathing cycle was obtained. Under mechanical respiration, respiratory flow and airway pressure were measured to compute dynamic compliance (Cdyn) and lung resistance (RL). To measure the TLC, pressure–volume maneuvers were performed, where lungs were inflated to a standard pressure of +30 cm H2O and then let slowly exhale until a negative pressure of −30 cm H2O was reached. To measure the FEV Fast-Flow Volume maneuvers was performed. In this maneuver, lungs were first inflated to +30 cm H2O (TLC) and, immediately, a negative pressure (−30 cm H2O) was applied in order to enforce expiration. To evaluate AHR, the same mice used in previous maneuvers (basal condition) received Metacholine, 1 mg/Kg (Acetyl-β-methylcholine chloride, A-2251, Sigma-Aldrich St.Louis, MO,USA) i.v., and 20 sec after, a new set of maneuvers were conducted to assess RL changes. Suboptimal maneuvers were rejected and for each test in every single mouse at least three acceptable maneuvers were conducted to obtain a reliable mean for all numeric parameters.
(§3) IL-5, IL-13, eotaxin, TGF-β, KC, IL-17A, and MCP-1 levels in the BALF and anti-OVA IgE levels in serum were measured by ELISA technique using commercial DuoSet kits R&D Systems according to the instructions of the manufacturer. Results were expressed in levels of cytokines per ml of […] (pg/ml) or arbitrary units (A.U.).
On day 1 BALB/c mice received systemic immunization by subcutaneous injection of 20 µg of chicken egg ovalbumin (OVA grade V, >98% pure; Sigma, St Louis, MO) in saline, emulsified in 75 µL CFA (Complete Freund’s Adjuvant; Sigma-Aldrich) (Figure 5)[52]. On days 25–28 mice were exposed to aerosolised ovalbumin (1% in saline) for 20 min per day. Mice were exposed during 30 min to aerosolized CL27c (2 mg/ml dissolved in 0.5 % tylaxopol/saline solution) or vehicle (0.5% tyloxapol/saline solution), or to systemic treatment with dexamethasone (5 mg/kg i.p. injection). Untreated control groups included mice challenged with PBS alone. On day 29, mice were sacrificed, and samples were collected for further analysis.
The left lung was removed and fixed in 4% neutral phosphate-buffered formalin (pH 7.4)[10]. The tissues were dehydrated gradually in ethanol, embedded in paraffin, cut into 4 µm sections, stained with H&E, Gomori’s trichrome and periodic acid schiff (PAS), and examined under light microscopy by a pathologist in a double blinded manner. Images of lung sections were captured with a digital camera (Optronics DEI-470) connected to a microscope (Olympus IX70) with a magnification of ×40 or ×100. Inflammation was scored according to modification of existing protocols[53] and to the histopathology criteria reported in Supplementary Table 4.

Experiment [2] deals with OVA-induced acute allergic asthma. The experiment can be described thus: OVA-induced acute allergic asthma model. Conditions: systemic treatment, i.p. The protocol:
On Days 1 and 14, BALB/c mice (6–8 weeks) received an intraperitoneal injection (i.p.) of a solution containing 0.5 mg/ml OVA and 5 mg/ml Alum (described in Fig. 2). Untreated controls were injected with a solution of 5 mg/ml Alum. […] Untreated control groups included mice challenged with PBS alone. On day 29, mice were sacrificed, and samples were collected for further analysis.
as §1, §3
Immunohistochemistry for CD18 was performed using the streptavidin-biotin-peroxidase method in formalin-fixed, paraffin-embedded tissue sections (5 µm thick) mounted on poly-L-lysine-coated microscope slides. Lung cross-sections were deparaffinized and rehydrated through xylene and graded alcohols. After antigen retrieval, endogenous peroxidase was blocked (15 min) with 3% (v/v) hydrogen peroxide and washed in phosphate-buffered saline (PBS). Sections were incubated overnight (4 °C) with primary rabbit anti-CD18 antibody (Acris Antibodies GmbH, Germany, Cat. Number B0842-1) diluted 1:400 in PBS plus bovine serum albumin (PBS-BSA) or rabbit anti/PAkt (S473) diluted 1:100 in PBS/BSA. The slides were then incubated with biotinylated goat anti-rabbit antibody (Dako Agilent Pathology Solution, USA) diluted 1:1000 in PBS/BSA. After washing, the slides were incubated with avidin-biotin-horseradish peroxidase conjugate (Dako Agilent Pathology Solution, USA) for 30 min, according to the manufacturer’s instructions. CD18 and PAkt-positive cells were visualized with the chromogen 3,3′-diaminobenzidine (DAKO liquid DAB + substrate chromogen system, CA, USA). Slides were counterstained with Harry’s hematoxylin, dehydrated in a graded alcohol series, cleared in xylene, and cover slipped.
Lung, liver, and heart samples were collected for western blot detection of akt phosphorilation levels. Protein samples were resolved by 10% SDS-PAGE and transferred on to PVDF (Immobilon™-P) membranes. The membranes were blocked with 5% BSA in 1x TBS with 0.3% Tween 20 for 30 min at […]. Then, the membranes were incubated overnight at 4 °C with primary antibodies (phosphorylated Akt serine 473, 1:1000, Cell Signaling Technology, Cat. Number 4060) and 1 h with HRP-conjugated secondary antibody (1:10000). The blots were visualized in ECL solution for 1 min and images were captured on Luminescent Image Analyser (ChemiDoc Imaging Systems, Bio-Rad Laboratories, USA). For loading control, the blots were striped and reassessed with pan Akt (1:1000) antibody. For quantification, specific phosphorylation was calculated as the ratio of signals for phosphorylated Akt to the signal of total Akt detected. Values of unstimulated samples were set to 1.0. Uncropped scans of the most important blots are provided as a supplementary figure in the Supplementary Information (Supplementary Fig. 15).

Experiment [3] concerns OVA-induced chronic allergic asthma. Kind of experiment: OVA-induced chronic allergic asthma model. Conditions: CL27c 2 mg/ml aerosol or dexamethasone 5 mg/kg. As for the experimental part: as §1, §2
On day 1, BALB/c mice received systemic immunization by subcutaneous injection of 10 µg of chicken egg ovalbumin (OVA grade V, >98% pure; Sigma, St Louis, MO) diluted in 2 mg/mL Al(OH)3 followed by a booster injection at the day 14 (described in fig. 3). Nasal challenges were performed starting at the day 28, by inhalational exposure to aerosolised ovalbumin (1% ovalbumin in saline 0,9%) for 20 min per day, in alternated days during 16 days (day 28, 30, 32, 34, 36, 38, 40, 42 and 44). At the same time, mice received daily treatment from day 28 to 44 with CL27c (2 mg/ml dissolved in 0.5 % tylaxopol/saline solution, aerosolized for 30′) or vehicle (0.5% tyloxapol/saline solution, aerosolized for 30′), or dexamethasone (5 mg/kg i.p. injection). Untreated control groups included mice challenged with PBS alone. On day 45, mice were sacrificed, and samples were collected for further analysis.
as §3
The left lung was removed and fixed in 4% neutral phosphate-buffered formalin (pH 7.4)[10]. The tissues were dehydrated gradually in ethanol, embedded in paraffin, cut into 4 µm sections, stained with H&E, Gomori’s trichrome and periodic acid schiff (PAS), and examined under light microscopy by a pathologist in a double blinded manner. Images of lung sections were captured with a digital camera (Optronics DEI-470) connected to a microscope (Olympus IX70) with a magnification of ×40 or ×100. […]

With `C[C@@H]1C[C@H]2[C@@H]3CCC4=CC(=O)C=C[C@]4(C)[C@@]3(F)[C@@H](O)C[C@]2(C)[C@@]1(O)C(=O)CO` [Dexamethasone, reference compound], the “histopathology: overall score of lung damage / tissue inflammation” value in experiment [1] is listed as “failed to provide an effect”. Further, the “BALF accumulation of inflammatory cells” value in experiment [2] is reported as “significantly reduced this infiltration”. In experiment [3], the “accumulation of inflammatory cells in peribronchial and perivascular spaces” value is “significantly decreased”; the “lung function: lung resistance (RL) and dynamic compliance (Cdyn)” value is given as “normalize lung function”; the “peribronchial fibrosis (fibrotic airway remodeling)” value is reported as “significantly reduced”.
